Experimental findings from patent publication US5302602A, “Tricyclic thromboxane A2 antagonists” (Kyowa Hakko Kogyo Co., Ltd., priority 1987, dated 1994) are described below.

Like-named read-outs stand apart in the source and are kept apart here. Bounds are passed on as bounds.

By inhibition is commonly meant the percentage by which the read-out fell short of the control.

Data set [1] relates to guinea pig platelets (TXA2/prostaglandin H2 receptor). As to the kind of experiment: Test on anti-platelet activity (TXA2 antagonizing test): inhibition of U-46619-induced platelet aggregation. It counts as cell-based. Conditions: Cavia porcellus, 0.05 h; minimum concentration inhibiting U-46619 (0.5-1 μM)-induced platelet aggregation by 30% or more; guinea pig PRP; read-out: TXA2 Antagonizing Activity (MEC), minimum effective concentration. On the procedure: Using guinea pig platelets influence of the compounds in accordance with the present invention on platelet aggregation induced by U-46619 (9,11-dideoxy-9α,11a-methanoepoxyprostaglandin F2 α; manufactured by Cayman Chemica Co., Ltd.) which is a TXA2 /prostaglandin H2 receptor stimulant was examined.
Male guinea pig (Hartley strain; body weight, 300 to 600 g) was anesthesized by intraperitoneal administration of sodium pentobarbital (30 mg/kg) and blood was collected from the descending aorta of the abdomen with a 1/10 volume of sodium citrate. By centrifugation (KC-70: manufactured by Kubota Co., Ltd.) at 800 rpm for 10 minutes, platelet rich plasma (PRP) was collected. Platelet aggregation induced by U-46619 (0.5-1 μM) was determined by photometry [Born, G.V.R. et al., Nature (London), 194, 927-929 (1962)]. A test compound was pretreated 3 minutes prior to aggregation induction and ability of inhibiting aggregation was measured. The minimum concentration for inhibiting platelet aggregation by 30% or more was defined as the minimum effective concentration (MEC) of the test compound.

The subject of data set [2] is homologous passive cutaneous anaphylaxis (PCA). As to the kind of experiment: Antiallergic activity test: homologous passive cutaneous anaphylaxis (PCA) test for 48 hours using rats. Format: in vivo, rat (Wistar strain, male). Conditions: Rattus norvegicus, po, minimum dose with at least one of 3 rats showing PCA inhibition rate 50% or more, read-out: Antiallergic Activity (MED), minimum effective dose. On the procedure: Antiallergic activity was examined in accordance with the passive cutaneous anaphylaxis (PCA) test using rats. As test animals, Wistar strain male rats weighing 180 to 220 g were used to collect antiserum and for the PCA test, Wistar strain male rats weighing 120 to 140 g were used.
Anti-EWA rat serum was prepared according to the method of Stotland and Share [Can. J. Physiol. Pharmacol., 52, 1114 (1974)]. That is, 1 mg of EWA was mixed with 20 mg of aluminum hydroxide gel and 0.5 ml of pertussis-diphtberia-tetanus mixed vaccine. The mixture was subcutaneously administered to the rat paw in 4 portions. Fourteen days after, blood was collected from the carotid artery and the serum was isolated and stored in a state frozen at -80° C. Titer of this antiserum to homologous PCA for 48 hours was 1:32.
Three rats were used per group. After the hair at the back was cut, 0.05 ml each of anti-EWA rat serum diluted to 8-fold with physiological saline was intracutaneously injected to each rat at the back in 2 places to passively sensitize the rat. A test compound or its solution (physiological saline solution or CMC solution) was orally administered 47 hours after and 0.5 ml/100 g of 1% Evans Blue physiological saline containing 2 mg of antigen EWA was then intravenously administered to the tail vein an hour after the administration. Thirty minutes later, the animal was bled to death. The skin was peeled off and a leaked dye amount at the blue dyed portion was measured according to the method of Katayama et al. [Microbiol. Immunol., 22, 89 (1978)]. That is, the blue dyed portion was cut off with scissors, put into a test tube charged with 1 ml of 1 N potassium hydroxide and incubated at 37° C. for 24 hours. After 9 ml of a mixture of 0.6 N phosphate:acetone (5:13) was added to the system, the mixture was shaken followed by centrifugation at 2500 rpm for 10 minutes. The absorbancy of the supernatant at 620 nm was measured and the leaked dye amount was quantitatively determined by comparison with a calibration curve previously prepared. A value of one rat was obtained from a mean value of the two portions and an inhibition rate-of each rat was calculated according to the following equation. [formula]
The case showing that the inhibition rate is 50% or more is judged to be positive in the PCA inhibition activity and the minimum dose in which at least one out of 3 rats was recognized to be positive was defined as the minimum effective dose (MED) of the test compound.

The test system of a further data set is mice. As to the kind of experiment: Acute toxicity test. Format: in vivo. To be noted: mortality observed for seven days. On the procedure: Using three dd strain male mice weighing 20±1 g, a test compound was orally (po; 300 mg/kg) or intraperitoneally (ip; 100 mg/kg) administered. MLD (the minimum lethal dose) was determined by observing the mortality for seven days after administration.

For the next data set, the target named is T1, TXA2 receptor (Cavia porcellus, UniProt A0A286Y4I8).
T1 construct: To a washed platelet suspension (1×10^8 platelets) of guinea pig; endogenous in cells; host or cells: washed guinea pig platelets
T1 sequence (A0A286Y4I8 1-347): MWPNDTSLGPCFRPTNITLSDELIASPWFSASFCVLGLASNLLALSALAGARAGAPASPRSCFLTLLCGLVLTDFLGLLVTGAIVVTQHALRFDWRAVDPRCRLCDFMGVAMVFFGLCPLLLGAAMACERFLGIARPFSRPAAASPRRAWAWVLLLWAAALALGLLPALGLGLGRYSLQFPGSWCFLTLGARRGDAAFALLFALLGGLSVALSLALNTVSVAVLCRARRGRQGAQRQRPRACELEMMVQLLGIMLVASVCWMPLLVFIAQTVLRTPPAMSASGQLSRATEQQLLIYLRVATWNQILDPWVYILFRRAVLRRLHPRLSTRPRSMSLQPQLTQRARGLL
As to the kind of experiment: Binding study using 3H-U46619 (TXA2 receptor binding activities test). The arrangement: species or system guinea pig. Conditions: 20 min; test compound 1 μM; 12 nM 3H-U46619; washed guinea pig platelets; 37° C., 20 minutes; read-out: % Inhibition (3H-U46619 binding). On the procedure:
Receptor binding was determined by a modified method of Kattelman et al. (Thrombosis Research, 41, 471 (1986)].
To a washed platelet suspension (1×10^8 platelets) of guinea pig were added 12 nM of tritium-labeled U46619 (^3 H-U46619; NEN Co., Ltd.) and a test compound (final concentration: 1 μM) solution. After keeping at 37° C. for 20 minutes, the mixture was rapidly filtered through a glass fiber filter paper (GF/C; Whatman). Immediately, the filter paper was washed 5 times with 3 ml of ice-cold 50 mM Tris-hydroxymethylaminomethane buffer (containing 100 mM sodium chloride). The glass fiber filter was transferred to a vial and a scintillator (Ex-H; manufactured by Wako Pure Chemical Industries Co., Ltd.) was added thereto. The radioactivity was determined with a liquid scintillation counter.
It is already known that ^3 H-U46619 is capable of binding with TXA2 receptor (see the publication supra). An inhibitory activity of the test compound against this binding means an ability of binding with the TXA2 receptor. It is also known that a good relationship exists between this binding activity and the anti-platelet activity (TXA2 antagonizing test).
An inhibitory activity (binding activity) of the test compound was calculated by the following equation. [formula]
Amount of the total binding is an amount of ^3 H-U46619-bound radioactivity in the absence of a test compound.
The amount of non-specific binding is used to mean an amount of ^3 H-U46619-bound radioactivity in the presence of 10 μM U-46619.
The amount bound in the presence of a test compound is an amount of ^3 H-U46619-bound radioactivity in the presence of a test compound in various concentrations.

Another data set deals with T2, histamine H1 receptor (Cavia porcellus, UniProt P31389).
T2 construct: from tissue; host or cells: guinea pig cerebellum membranes
T2 sequence (P31389 whole entry): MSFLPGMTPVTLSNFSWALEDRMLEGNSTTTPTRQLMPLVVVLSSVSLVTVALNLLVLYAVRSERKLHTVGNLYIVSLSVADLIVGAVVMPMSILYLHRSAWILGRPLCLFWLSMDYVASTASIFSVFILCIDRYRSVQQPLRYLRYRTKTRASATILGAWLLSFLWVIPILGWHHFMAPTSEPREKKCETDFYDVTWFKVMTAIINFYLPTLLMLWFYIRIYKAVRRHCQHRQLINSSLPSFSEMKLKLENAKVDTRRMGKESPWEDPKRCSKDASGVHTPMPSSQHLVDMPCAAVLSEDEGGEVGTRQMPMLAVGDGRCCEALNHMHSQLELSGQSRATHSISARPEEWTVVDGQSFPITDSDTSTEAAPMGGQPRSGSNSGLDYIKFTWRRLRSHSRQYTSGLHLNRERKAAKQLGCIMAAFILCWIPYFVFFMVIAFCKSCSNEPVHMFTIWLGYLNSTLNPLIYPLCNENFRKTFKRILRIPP
The data set is described as follows: Binding study using 3H-pyrilamine (histamine H1 receptor binding). On the set-up: species or system guinea pig. To be noted: read-out: (%) Inhibition (3H-pyrilamine binding). On the procedure:
Receptor binding was determined by the method of chang et al. [J. Neurochem., 32, 1953 (1979)].
The cerebellum of guinea pig was suspended in a 40-fold amount (V/W) of chilled 50 mM phosphate buffer (pH 7.5) with Polytron Homogenizer (Kinematica Co., Ltd.). The suspension was centrifuged (35,500×g, 10 minutes). The resulting precipitates were resuspended in an equal amount of fresh buffer followed by centrifugation. A 100-fold amount (V/W) of chilled buffer was added to the final precipitates.
To 1 ml of the membrane suspension adjusted as described above were added 50 μl of tritium-labeled pyrilamine (^3 H-pyrilamine; NEN Co., Ltd.) and 50 μl of a test compound. The mixture was allowed to stand at 25° C. for 30 minutes, 4 ml of chilled buffer was added thereto. The mixture was rapidly filtered through a glass fiber filter (GF/C; Whatman). The filter paper was further washed three times with 5 ml of buffer. Hereafter procedures were performed in a manner similar to the TXA2 receptor binding test to determine radioactivity.
An inhibitory activity of the test compound against H1 receptor was calculated by the following equation. [formula]
Amount of the total binding is an amount of ^3 H-pyrilamine-bound radioactivity in the absence of a test compound.
The amount of non-specific binding is an amount of ^3 H-pyrilamine-bound radioactivity in the presence of 3 μM Astemizole (manufactured by Janesen Pharmaceutics).
The amount bound in the presence of a test compound is an amount of ^3 H-pyrilamine-bound radioactivity in the presence of a test compound in various concentrations.

`O=C(O)c1ccc2c(c1)C(SCCN1CCN(Cc3ccccc3)CC1)c1ccccc1CO2` (stereo not drawn) [Compound 11b, 11-[2-(4-Benzyl-1-piperazinyl)ethyl]thio-6,11-dihydrodibenz[b,e]oxepin-2-carboxylic acid]: in data set [1], the minimal effective concentration turned out to be 1 µg/mL. In data set [2], the minimal effective dose worked out at 10 mg/kg. In addition, the “Acute Toxicity (MLD), minimum lethal dose” value (from here on “Acute Toxicity (MLD)”) is recorded as greater than 100 mg/kg in the data set with mice (ip) and greater than 300 mg/kg in the data set on mice (po). Besides, the inhibition at 1 µM worked out at 70% at TXA2 receptor and 95% on histamine H1 receptor.

For the molecule `O=C(O)c1ccc2c(c1)C(SCCN1CCC(Cc3ccccc3)CC1)c1ccccc1CO2` (stereo not drawn) [Compound 38b], the minimal effective concentration in data set [1] is 1 µg/mL. Besides, in data set [2], the minimal effective dose stood at 1 mg/kg. In addition, the inhibition at 1 µM on TXA2 receptor stood at 81%; on histamine H1 receptor, 92%.

Consider `O=C(O)c1ccc2c(c1)C(SCCN1CCN(S(=O)(=O)c3cccs3)CC1)c1ccccc1CO2` (stereo not drawn) [Compound 25b, 11-[2-[4-(2-Thienylsulfonyl)-1-piperazinyl]ethyl]thio-6,11-dihydrodibenz[b,e]oxepin-2-carboxylic acid.0.5 isopropanol.dihydrate], for which the minimal effective concentration in data set [1] worked out at 3 µg/mL. For the same molecule, the minimal effective dose in data set [2] was found to be 10 mg/kg. Moreover, the “Acute Toxicity (MLD)” value in the data set with mice (ip) is given as greater than 100 mg/kg; in the data set with mice (po) it was greater than 300 mg/kg. The inhibition at 1 µM at TXA2 receptor was 78%; on histamine H1 receptor, 95%.

In the case of `O=C(O)COc1ccc(CCNS(=O)(=O)c2ccccc2)cc1` [BM13177, reference compound], the minimal effective concentration in data set [1] came out at 3 µg/mL. In data set [2], the minimal effective dose was greater than 100 mg/kg. Also, the “Acute Toxicity (MLD)” value is recorded as greater than 100 mg/kg in the data set on mice (ip) and greater than 300 mg/kg in the data set on mice (po). In addition, the inhibition at 1 µM was found to be 31% at TXA2 receptor and 0% on histamine H1 receptor (test compound 10^-6 M, guinea pig cerebellum membranes, 25° C., 30 minutes).

Regarding `O=C(O)c1ccc2c(c1)C(SCCN1CCN(c3ccccc3)CC1)c1ccccc1CO2` (stereo not drawn) [Compound 1b, 11-[2-(4-Phenyl-1-piperazinyl)ethyl]thio-6,11-dihydrodibenz[b,e]oxepin-2-carboxylic acid], the minimal effective concentration in data set [1] stood at 3 µg/mL. Besides, the minimal effective dose in data set [2] was 10 mg/kg. In addition, the “Acute Toxicity (MLD)” value with mice (ip) is reported as greater than 100 mg/kg; with mice (po) it was greater than 300 mg/kg. Besides, at histamine H1 receptor, the inhibition at 1 µM was found to be 68%.
